# According to ChEMBL document CHEMBL1201862, “PubChem BioAssay data set” (2004):
#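 The compound was tested at five concentrations on cells cultured in 96-well plates, with a 48-hour exposure period. GI50: concentration for 50% inhibition of growth.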 The source made the active and inactive calls. Cut-off read from the data, not from the text of the source: active = GI50 up to about 1.1 µM and inactive = higher.
# Tests used:
# Assay in all cases: NCI tumour cell line growth inhibition, 48 h
# [1] = test system: LOX IMVI
# [2] = test system: OVCAR-4
# [3] = test system: DU-145
# [4] = test system: CAKI-1
# [5] = test system: RXF 393
# [6] = test system: 786-0
# [7] = test system: OVCAR-5
# [8] = test system: MDA-N
# [9] = test system: OVCAR-3
# [10] = test system: SK-OV-3
# [11] = test system: COLO 205
# [12] = test system: K562
# [13] = test system: SF-295
# [14] = test system: OVCAR-8
# [15] = test system: NCI-H23
# [16] = test system: NCI-H226
# [17] = test system: HOP-62
# [18] = test system: BT-549
# [19] = test system: HL-60
# [20] = test system: SNB-19
# [21] = test system: Hs-578T
# [22] = test system: A498
# [23] = test system: UO-31
# [24] = test system: A549
# [25] = test system: RPMI-8226
# [26] = test system: SF-539
# [27] = test system: NCI-H522
# [28] = test system: UACC-62
# [29] = test system: SW-620
# [30] = test system: ACHN
# [31] = test system: MCF7
# [32] = test system: HCT-15
# [33] = test system: MOLT-4
# [34] = test system: SK-MEL-5
# [35] = test system: SF-268
# [36] = test system: EKVX
# [37] = test system: SN12C
# [38] = test system: SR
# [39] = test system: CCRF-CEM
# [40] = test system: Malme-3M
# [41] = test system: HCC 2998
# [42] = test system: NCI-H460
# [43] = test system: T47D
# [44] = test system: HOP-92
# [45] = test system: TK-10
# [46] = test system: SK-MEL-28
# [47] = test system: SK-MEL-2
# [48] = test system: IGROV-1
# [49] = test system: KM12
# [50] = test system: PC-3
# [51] = test system: U-251
# [52] = test system: UACC-257
# [53] = test system: NCI/ADR-RES
# [54] = test system: M14
# [55] = test system: MDA-MB-435
# [56] = test system: MDA-MB-231
# [57] = test system: HT-29
# [58] = test system: HCT-116
smiles,measurement,setting,value
c1ccc([C@@H]2N[C@@]3(CO[Si](c4ccccc4)(c4ccccc4)c4ccccc4)CC[C@H]4CN[C@@H]2[C@H]43)cc1,GI50,[1],10.4 µM (inactive)
same,GI50,[2],13.6 µM (inactive)
same,GI50,[3],10.2 µM (inactive)
same,GI50,[4],12.4 µM (inactive)
same,GI50,[5],4.3 µM (inactive)
same,GI50,[6],12.4 µM (inactive)
same,GI50,[7],16.1 µM (inactive)
same,GI50,[8],3.58 µM (inactive)
same,GI50,[9],13.8 µM (inactive)
same,GI50,[10],16.2 µM (inactive)
same,GI50,[11],1.68 µM (inactive)
same,GI50,[12],3.33 µM (inactive)
same,GI50,[13],12.4 µM (inactive)
same,GI50,[14],13.1 µM (inactive)
same,GI50,[15],15.5 µM (inactive)
same,GI50,[16],12.4 µM (inactive)
same,GI50,[17],16.6 µM (inactive)
same,GI50,[18],20.9 µM (inactive)
same,GI50,[19],4.36 µM (inactive)
same,GI50,[20],17.2 µM (inactive)
same,GI50,[21],13.8 µM (inactive)
same,GI50,[22],15.3 µM (inactive)
same,GI50,[23],10.8 µM (inactive)
same,GI50,[24],12.3 µM (inactive)
same,GI50,[25],2.76 µM (inactive)
same,GI50,[26],15.3 µM (inactive)
same,GI50,[27],3.43 µM (inactive)
same,GI50,[28],14.3 µM (inactive)
same,GI50,[29],3.25 µM (inactive)
same,GI50,[30],13.7 µM (inactive)
same,GI50,[31],2.99 µM (inactive)
same,GI50,[32],3.17 µM
same,GI50,[33],3.75 µM (inactive)
same,GI50,[34],6.47 µM (inactive)
same,GI50,[35],4.63 µM (inactive)
same,GI50,[36],15.3 µM (inactive)
same,GI50,[37],13.2 µM (inactive)
same,GI50,[38],3.15 µM (inactive)
same,GI50,[39],16 µM (inactive)
same,GI50,[40],59.8 nM (active)
same,GI50,[41],1.66 µM (inactive)
same,GI50,[42],10.4 µM (inactive)
same,GI50,[43],4.07 µM (inactive)
same,GI50,[44],4.61 µM (inactive)
same,GI50,[45],16.7 µM (inactive)
same,GI50,[46],14.9 µM (inactive)
same,GI50,[47],17.9 µM (inactive)
same,GI50,[48],12.8 µM (inactive)
same,GI50,[49],3.62 µM (inactive)
same,GI50,[50],9.06 µM (inactive)
same,GI50,[51],16.9 µM (inactive)
same,GI50,[52],14.3 µM (inactive)
same,GI50,[53],15.4 µM (inactive)
same,GI50,[54],5.65 µM (inactive)
same,GI50,[55],8.51 µM (inactive)
same,GI50,[56],11.8 µM (inactive)
same,GI50,[57],2.55 µM (inactive)
same,GI50,[58],3.23 µM (inactive)
